This note sets out measurements from patent US9795138B2, “Method for increasing the vigor and/or crop yield of agricultural plants under essentially non-existent pathogen pressure” (Bayer CropScience LP, priority 2009, dated 2017).

The test system of assay [1] is maize plants (variety Burrus 616XLR). The experiment in a line: Maize field trial Carlyle, Ill.: grain yield, Colby. The class given is in vivo. The text has this: Maize was planted in 2009 at Carlyle, Ill., U.S.A. The variety Burrus 616XLR was planted at a conventional seeding rate and a row spacing of 76 cm. The trial was setup as a randomized bloc design with six replications. Plot size was 18 m^2. Pyraclostrobin was applied at developmental stage 34/37 (BBCH). Bacillus subtilis QST 713 (SERENADE® MAX) was applied to the maize plants at developmental stage 34/37 (BBCH) followed by a second application at developmental stage 55/57 (BBCH). Bacillus subtilis QST 713 (SERENADE® MAX) in combination with pyraclostrobin were applied as a tank mix at the developmental stage 34/37 (BBCH). The active ingredients were applied using commercial formulations SERENADE® MAX (14.3%, WP with 7.3×10^9 cfu/g) and HEADLINE® (250 g/L, EC). Total spray volume for foliar applications was 200 L/ha. […] At maturity the crop was harvested and grain yield was measured as t/ha (Table 10).
The expected yield increase by the combination of the active compounds was estimated using Colby's formula (Colby, S. R., “Calculating Synergistic and Antagonistic Responses of Herbicide Combinations,” Weeds, 15, pp. 20-22, 1967) and compared with the observed yield increase. […]

The test system of a further assay is peas. Put plainly: Pea seed treatment, greenhouse plant fresh weight, Colby. The class given is in vivo. Conditions: 12 days at 20° C., pyraclostrobin 5 g/100 kg seed, SERENADE MAX 173 g/100 kg seed. The procedure: The active compounds were used applying commercially available formulations and diluted according to the concentrations/dose rates as stated in the respective data tables.
Seed treatment was done to seeds of peas using the Hege Seed Treatment equipment in a sequential approach. Pyraclostrobin was applied with a volume of 850 mL slurry per 100 kg seeds. Afterwards the stated amount of SERENADE® MAX was dissolved in a total volume of 8.3 L water (amount for 100 kg seeds) and applied sequentially in ten steps with drying of the seeds in between. The compounds were used as commercial finished formulations and diluted with water to the stated concentration of the active compound.
Seeds of peas were sown in soil (10 seeds/pot, 10 replications/treatment) and incubated in the greenhouse at 20° C. for 12 days. Plants were harvested and pooled per treatment and the plant fresh weight was determined.
The expected plant fresh weights of active compound mixtures were determined using Colby's formula as defined above [R. S. Colby, “Calculating Synergistic and Antagonistic Responses of Herbicide Combinations,” Weeds 15, 20-22 (1967)] and compared with the observed plant fresh weights.

As for `COC(=O)N(OC)c1ccccc1COc1ccn(-c2ccc(Cl)cc2)n1` [Pyraclostrobin, pyraclostrobin], the “Grain Yield (t/ha)” value in assay [1] (maize, pyraclostrobin 0.44 L/ha solo (0.3 L/ha in mix) at BBCH 34/37, SERENADE MAX 3.0 kg/ha at 34/37 (solo also 55/57)) is on record as 8.32 t/ha. Moreover, in assay [1] (vs untreated, same treatments), the “Observed Yield Increase (t/ha)” value turned out to be 0.05 t/ha. Also, the “Fresh Weight” value in the assay with peas amounted to 47 g.
